Measured values taken from ChEMBL document CHEMBL1124807, “Syntheses and platelet aggregation inhibitory and antithrombotic properties of [2-[(omega-aminoalkoxy)phenyl]ethyl]benzenes” (J Med Chem, 1990).

Experiments:
Mus musculus [1] = test: In vivo antithrombotic activity in mice following p.o. administration.; format: functional; conditions: po, read-out: PD50
Oryctolagus cuniculus = organism: Oryctolagus cuniculus; test: In vitro inhibition of collagen induced platelet aggregation of rabbit platelet rich plasma; format: functional
[2] = target: T1, Serotonin 2 (5-HT2) receptor (Rattus norvegicus, UniProt P30994+P08909+P14842); test: Inhibition of 5-hydroxytryptamine 2 induced vasoconstriction of rat caudal artery.; format: tissue-based
[3] = target: T1, Serotonin 2 (5-HT2) receptor; test: Antagonistic activity against 5-hydroxytryptamine 2 receptor on rat frontal cortex membrane.; format: functional, tissue-based
Mus musculus [4] = test: In vivo antithrombotic activity in mice (po); format: functional; conditions: read-out: PD50

Row | SMILES | IC50 (Oryctolagus cuniculus; read-out: IC50) | Ki [2] | IC50 [3] | ED50 (Mus musculus [1]) | also measured
1 | CN(C)CCCCOc1ccccc1CCc1ccc(F)cc1.Cl | 760 nM |  |  | > 50 mg/kg | 
2 | CN(C)CCCOc1ccccc1CCc1ccc(Cl)cc1.Cl | 540 nM |  |  | > 50 mg/kg | 
3 | CN(C)CCCCOc1ccccc1CCc1cccc(F)c1.Cl | 480 nM |  |  | 27 mg/kg | 
4 | CN(C)CCCCOc1ccccc1CCc1ccccc1Cl.Cl | 500 nM |  |  | 50 mg/kg | 
5 | CCOc1ccccc1CCc1ccccc1OCCCCN(C)C | 900 nM |  |  |  | 
6 | COc1ccccc1CCc1ccccc1OCCCCN(C)C.Cl | 600 nM |  |  | 45 mg/kg | 
7 | COc1cccc(CCc2ccccc2OCCCCN(C)C)c1.Cl | 530 nM | 13.1 nM | 62.2 nM | 19 mg/kg | 
8 | CN(C)CCCOc1ccccc1CCc1ccc(N(C)C)cc1.Cl | 310 nM | 23.3 nM | 53.6 nM | 130 mg/kg | 
9 | CN(C)CCCCOc1ccccc1CCc1cccc(Cl)c1.Cl | 530 nM |  |  | 27 mg/kg | 
10 | CN(C)CCCOc1ccc(Cl)cc1CCc1ccccc1 | 2500 nM | 25.7 nM | 881.4 nM |  | ED50 (Mus musculus [4]): 21 mg/kg
11 | CN(C)CC(COc1ccccc1CCc1cccc(F)c1)OC(=O)CCC(=O)O (centres undefined) | 1200 nM | 41.3 nM | 132.5 nM | 27 mg/kg | 
12 | Cc1ccccc1CCc1ccccc1OCCCCN(C)C | 1200 nM |  |  |  | 
13 | CN(C)CCCOc1ccccc1CCc1ccc(Cl)c(Cl)c1 | 580 nM |  |  | 94 mg/kg | 
14 | CCCCN(C)CCCCOc1ccccc1CCc1ccccc1 | 3200 nM | 67.6 nM | 974.6 nM |  | 
15 | COc1cccc(CCc2ccccc2)c1OCCCCN(C)C | 2300 nM |  |  |  | ED50 (Mus musculus [4]): 40 mg/kg
16 | CN(CCCCOc1ccccc1CCc1ccccc1)c1ccccc1 | > 50000 nM |  |  |  | 
17 | CN(C)CCCCOc1ccccc1CCc1ccccc1C(=O)O | 1500 nM |  |  |  | 

Row | SMILES | IC50 (Oryctolagus cuniculus; read-out: IC50) | Ki [2] | IC50 [3] | ED50 (Mus musculus [1]) | also measured
18 | CN(C)CCCCOc1ccccc1CCc1ccccc1O | 960 nM |  |  |  | 
19 | CN(C)CC(COc1ccccc1CCc1ccccc1)OC(=O)CCC(=O)O (centres undefined) | 2200 nM |  |  | 27 mg/kg | 
20 | CN(C)CC(O)COc1ccccc1CCc1ccccc1 (centres undefined) | 1200 nM | 13.9 nM | 54.8 nM |  | 
21 | COc1cccc(CCc2ccccc2OCC(O)CN(C)C)c1 (centres undefined) | 480 nM | 1.16 nM | 12.5 nM | 29 mg/kg | 
22 | CN(C)CC(COc1ccccc1CCc1cccc(Cl)c1)OC(=O)CCC(=O)O (centres undefined) | 800 nM |  |  | 27 mg/kg | 
23 | CN(CCCCOc1ccccc1CCc1ccccc1)CCCC(=O)O | 13000 nM |  |  |  | 
24 | CN(C)CCCCOc1ccc(CCc2ccccc2)cc1 | 3400 nM | 416 nM | 1976 nM |  | 
25 | CN(C)CCCCOc1cccc(CCc2ccccc2)c1 | 19000 nM | 517 nM | 3328.3 nM |  | 
26 | CN(C)CC(COc1ccccc1CCc1ccccc1)OCCC(=O)O (centres undefined) | 3300 nM |  |  | 25 mg/kg | 
27 | CN(C)CC(COc1ccccc1CCc1ccccc1)OCC(=O)O (centres undefined) | 3600 nM |  |  | 24 mg/kg | 
28 | CN(C)CCOc1ccccc1CCc1ccccc1 | 670 nM | 6.33 nM | 96.2 nM |  | 
29 | CN(CCCCOc1ccccc1CCc1ccccc1)Cc1ccccc1 | > 50000 nM | 198 nM | 4479 nM |  | 
30 | CN(C)CCCCOc1ccccc1CCc1ccccc1 | 700 nM | 9.78 nM | 115.4 nM |  | ED50 (Mus musculus [4]): 26 mg/kg
31 | CC(=O)Oc1ccccc1C(=O)O [ASPIRIN] |  |  |  |  | IC50 (Oryctolagus cuniculus): 23000 nM
32 | COc1cccc(CCc2ccccc2OCC(CN(C)C)OC(=O)CCC(=O)O)c1.Cl (centres undefined) [SARPOGRELATE HYROCHLORIDE] | 970 nM | 17.8 nM | 51.3 nM | 24 mg/kg | 
33 | Clc1ccccc1CN1CCc2sccc2C1 [TICLOPIDINE] |  |  |  | 120 mg/kg | 

Continued, in another order:

Row | IC50 (Oryctolagus cuniculus; read-out: IC50) | Ki [2] | IC50 [3] | SMILES | ED50 (Mus musculus [1]) | also measured
34 | 6200 nM |  |  | O=C(O)C1CCN(CCCCOc2ccccc2CCc2ccccc2)CC1 |  | 
35 | 1150 nM | 37.6 nM | 377 nM | CN(C)CCCCCOc1ccccc1CCc1ccccc1 |  | 
36 | 700 nM |  |  | CCN(CC)CCCCOc1ccccc1CCc1ccccc1 |  | 
37 | 2400 nM |  |  | c1ccc(CCc2ccccc2OCCCCN2CCCCC2)cc1 |  | 
38 | 1700 nM | 74.9 nM | 152.4 nM | CN(C)CCCCCCOc1ccccc1CCc1ccccc1 |  | 
39 | 1400 nM |  |  | CN(CCO)CCCCOc1ccccc1CCc1ccccc1 |  | 
40 | 2000 nM |  |  | c1ccc(CCc2ccccc2OCCCCN2CCNCC2)cc1 |  | 
41 | 2200 nM |  |  | OCCN1CCN(CCCCOc2ccccc2CCc2ccccc2)CC1 |  | 
42 | 1400 nM |  |  | NC(=O)C1CCCN(CCCCOc2ccccc2CCc2ccccc2)C1 (centres undefined) |  | 
43 | > 50000 nM |  |  | NCCCCOc1ccccc1CCc1ccccc1 |  | 
44 | 4500 nM | 70.6 nM | 156.5 nM | CNCCCCOc1ccccc1CCc1ccccc1 |  | 
45 | 29000 nM |  |  | CN(CCCCOc1ccccc1CCc1ccccc1)CC(=O)O |  | 
46 | 19000 nM |  |  | c1ccc(CCc2ccccc2OCCCCN2CCOCC2)cc1 |  | 
47 | 540 nM | 4.55 nM | 33.8 nM | CN(C)CCCOc1ccccc1CCc1ccccc1 |  | 
48 | 2400 nM |  |  | NC(=O)C1CCN(CCCCOc2ccccc2CCc2ccccc2)CC1 |  | 
49 | 18000 nM |  |  | O=C(O)C1CCCN1CCCCOc1ccccc1CCc1ccccc1 (centres undefined) |  | 
50 | 620 nM |  |  | c1ccc(CCc2ccccc2OCCCCN2CCCC2)cc1 |  | 
51 | 890 nM |  |  | OC1CCN(CCCCOc2ccccc2CCc2ccccc2)CC1 |  | 
